As a reminder, the EC50 is the concentration giving half of the maximal effect. A lower EC50 goes with an effect from little substance.

What all share (type): cell-based
Assay [1] concerns H460 (human non-small cell lung carcinoma cells). Briefly: Cytotoxicity against H460. To be noted: NCI-H460.
For assay [2], the system named is H460TaxR (paclitaxel-resistant human non-small cell lung carcinoma cells). Briefly: Cytotoxicity against H460TaxR. To be noted: H460/TaxR.
In assay [3] the test system is normal human fibroblasts NHFB. Put plainly: Cytotoxicity against normal human fibroblasts. To be noted: Fibroblast.

For `CC(=O)O[C@H]1C(=O)[C@@]2(C)[C@H]([C@H](OC(=O)c3ccccc3)[C@]3(O)C[C@H](OC(=O)[C@H](O)[C@@H](NC(=O)c4ccccc4)c4ccccc4)C(C)=C1C3(C)C)[C@]1(OC(C)=O)CO[C@@H]1C[C@@H]2O` [PTX, paclitaxel], the EC50 in assay [1] turned out to be 6 ± 2 nM; in assay [2] it was 800 ± 400 nM; in assay [3], 50 ± 30 nM.

For the origin of these results see paper PMC5592639 (ACS combinatorial science, 2016).
